From US9150530B2, “Esters of 4, 9-dihydroxy-naphtho [2, 3-b] furans for disease therapies” (Zhoushan Haizhongzhou Xinsheng Pharmaceuticals Co., Ltd., priority 2011, dated 2015) come the findings set out here.

Data set [1] is described as follows: Metabolism in biological fluid (human whole blood, cancer cell lysate, liver microsomes, mouse oral uptake), HPLC. Type of data set: in vitro ADME. The following applies: liver microsomes or mouse oral uptake system, 20 μM, 37° C. On the procedure: Second, a major metabolite found after incubation of compound I, III, IV, VI or XIII in biological fluid, such as human whole blood, or cancer cell lysate, or liver microsomes, or mouse oral uptake system, is compound XII (FIG. 3). Similarly, a major metabolite found after incubation of compound V, VII or XIV in biological fluid is 2-(1-hydroxy-n-propyl)-naphtho[2,3-b]furan-4,9-dione (data not shown). Reduction of the position 2 substituent carbonyl group is part of quinone redox reaction as evidenced by the β-lapachone effect on the formation of compound XII in the compound XIII incubation mixture of human whole blood (part D of FIG. 3). The possible reaction mechanism is proposed as shown in scheme 7, in which the two electron reduction could be NQ01 catalyzed reduction or two successive cytochrome b5 reductase or p450 reductase catalyzed reaction. As substrate of these enzymes, β-lapachone could compete for the two electron or single electron reaction and thus reduced formation of the metabolism product.
Crystalline or amorphous solid of compound was mixed with excipient and suspended in 0.5% carboxymethylcellulose (CMC) solution in a mortar. Then the mixture was orally administered into ICR mouse at the predetermined dosage. At the predetermined time point, blood was drawn from the mouse and stored in the vial containing heparin. The blood samples were centrifuged at 6,000 rpm for 10 min, and plasmas were separated. To each plasma sample, 9 times volume of acetonitrile/methyl trifluoromethanesulfonate (1000:1) or acetonitrile/concentrated HCl (1000:1) was added. The resulting mixtures were vortexed and incubated in dry ice for 30 minutes or in −20° C. freezer for 3 hours, then centrifuged, and supernatants were separated for HPLC analysis using gradient B.
The biological systems for in vitro metabolism study include: human whole blood stabilized with sodium citrate; cancer cell lysate (obtained using freeze-thaw method, 10 mg/ml in protein concentration for use); liver microsomes with NADPH generation system (prepared according to the protocol provided by iPhase Pharma, Beijing, China);
10 mM of a compound of formula I or its analog or compound XIII in DMSO (however, compound VI was in DMF) was added into the biological system to a final concentration of 20 μM. The mixtures were incubated at 37° C. for predetermined time. To each sample, then 9 times volume of acetonitrile was added. The resulting mixtures were vortexed and incubated in dry ice for 30 minutes or in −20° C. freezer for 3 hours, then centrifuged, and supernatants were separated for HPLC analysis using gradient B.
On the technique in general: Liver microsomes are a subcellular fraction often used to study metabolism.

Data set [2] concerns DLD1. Put plainly: Effect of NQ01 inhibitor (dicumarol) on biological activity, MTT, DLD1. It counts as cell-based. The note with it: DLD1 (significant NQ01 enzymatic activity); dicumarol 40 μM; 48 hr. On the procedure:
(§1) Cell Viability Determination: Popular MTT method (Archives of Biochemistry and Biophysics, 1993, 303: 474-482) was used to screen the in vitro effects of the invented drugs. Briefly, 5000 to 10000 cells were inoculated per well in a 96-well plate. After overnight incubation, drug was added to the wells at final concentration of 10 μM, […], 2.5 μM, 1.25 μM, or 1 μM, 0.75 μM, 0.5 μM and 0.25 μM in complete culture medium. Each dose level covered 4 equivalent wells. After 48 hour incubation, one tenth volume of 5 mg/mL MTT (thiazolyl blue tetrazolium bromide, Sigma-Aldrich) stock solution was added, and incubation was continued for 2 hours. Then medium was removed and 100 μL of isopropanol solution comprising 86% isopropanol, 4% aqueous 1 N HCl and 10% aqueous SDS solution (10% in concentration) was added. The absorbance of each well at 570 nm wavelength was measured by a micro-plate reader after gentle shaking for 20 minutes. Drug concentrations of 50% cell viability (IC50) were calculated by LOGIT method.
(§2) Effect of NQ01 Inhibitor (Dicumarol) on the Biological Activities of 2-acetyl-4,9-diacetoxy-naphtho[2,3-b]furan and Compound XIII (Part B and C of FIG. 4):MTT assay was used for this experiment. Same procedure as described in “Cell Viability Determination” section. […] The viability of cells at each well was read out after 48 hr incubation in cell culture incubator.

The subject of the next data set is Panc-1. Put plainly: Effect of NQ01 inhibitor (dicumarol) on biological activity, MTT, Panc-1. The note with it: Panc-1 (no significant NQ01 enzymatic activity); dicumarol 40 μM; 48 hr. It counts as cell-based. The protocol: as §1, §2
Data set [3] concerns DLD1. As to the kind of experiment: Effect of drug incubation time on biological activity, MTT, DLD1. The following applies: DLD1 (significant NQ01 activity). It counts as cell-based. On the procedure:
as §1
(§3) Effect of Drug Incubation Time on the Biological Activities of Compound XIII (FIG. 7): MTT assay was used for this experiment. Same procedure as described in “Cell Viability Determination” section. Briefly, cancer cells were inoculated on 96 well culture plates. […] The viability of cells at each well was read out using MTT method.

The test system of another data set is A549. As to the kind of experiment: Effect of drug incubation time on biological activity, MTT, A549. Type of data set: cell-based. The note with it: A549 (significant NQ01 activity). On the procedure: as §1, §3
In the next data set the test system is H1299. As to the kind of experiment: Effect of drug incubation time on biological activity, MTT, H1299. It counts as cell-based. The following applies: H1299 (no NQ01 activity). On the procedure:
as §1, §3

Another data set deals with Panc 1. As to the kind of experiment: Effect of drug incubation time on biological activity, MTT, Panc 1. It counts as cell-based. The note with it: Panc 1 (no NQ01 activity). On the procedure: as §1, §3

Each structure is given as a SMILES string.

As to `CC(=O)c1cc2c(o1)C(=O)c1ccccc1C2=O` [compound XIII, 2-acetyl-naphtho[2,3-b]furan-4,9-dione], in data set [1], the “Major metabolite found after incubation in biological fluid” value was “compound XII”. Also, the figures for the “Dicumarol effect on anticancer activity” value with DLD1 [2] and in the data set on Panc-1 were “dicumarol attenuates anticancer activities” and “dicumarol showed little effect”, respectively. Moreover, the “Cell growth inhibition, full time treatment versus 4 hour treatment” value in the data set on DLD1 [3] is “made no significant difference in cell growth inhibition”; in the data set on A549 it was “made no significant difference in cell growth inhibition”; in the data set on H1299, “full time treatment with compound XIII caused much higher cell growth inhibition than 4 hour treatment”; in the data set on Panc 1, “full time treatment with compound XIII caused much higher cell growth inhibition than 4 hour treatment”.
